Counter-ions that a name gives are not always drawn. ± gives the standard deviation of the averaged measurements.
Test system: HT1080
Assay: relative viability vs DMSO control (72 h) (fraction); higher = more viable cells
How it was run: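 Relative viability is percent growth read by ATPLite and averaged over up to triplicate wells. Sarcoma cells were seeded in 384-well plates to reach 80–90% confluence and given 2.5 µl of serially diluted compound after 24 h, from source plates of 10 mM to 0.0002 mM. Incubation lasted 72 h at 37 °C, 5% CO2, with 0.1% DMSO vehicle and a 5 µM positive control, and the data were rescaled so 1 equals full and 0 equals none.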

Row | SMILES | relative viability (0.00017 µM) | relative viability (0.00051 µM) | relative viability (0.00152 µM) | relative viability (0.00457 µM) | relative viability (0.01372 µM) | relative viability (0.04115 µM) | relative viability (0.1235 µM) | relative viability (0.3704 µM) | relative viability (1.111 µM) | relative viability (3.333 µM) | relative viability (10 µM) | relative viability (2 pM) | relative viability (5 pM) | relative viability (15 pM) | relative viability (50 pM) | relative viability (0.00014 µM) | relative viability (0.00041 µM) | relative viability (0.0012 µM) | relative viability (0.0037 µM) | relative viability (0.011 µM) | relative viability (200 fM) | relative viability (600 fM)
1 | Cc1ccc(F)c(NC(=O)Nc2ccc(-c3cccc4[nH]nc(N)c34)cc2)c1 [Linifanib] | 1.08 ± 0.022 | 1.08 ± 0.026 | 1.07 ± 0.017 | 1.033 ± 0.0064 | 1.06 ± 0.02 | 1.07 ± 0.037 | 1.048 ± 0.0077 | 1.08 ± 0.0094 | 1.08 ± 0.031 | 1.08 ± 0.03 | 1.05 ± 0.015 | – | – | – | – | – | – | – | – | – | – | –
2 | CC(C)N1CCN(Cc2cnc(-c3cc(-c4cccc5[nH]ccc45)cc4[nH]ncc34)o2)CC1 [Nemiralisib] | 1 ± 0.045 | 1.03 ± 0.015 | 1.01 ± 0.02 | 1.027 ± 0.0081 | 1.008 ± 0.0024 | 1.02 ± 0.011 | 1.05 ± 0.045 | 1.05 ± 0.034 | 1.08 ± 0.068 | 1.02 ± 0.033 | 0.858 ± 0.024 | – | – | – | – | – | – | – | – | – | – | –
3 | COCc1c(-c2cc3cc(C)cc(OC)c3s2)c2c(N)ncnn2c1CN1CCNC(=O)C1 [Rogaratinib] | 1.08 ± 0.023 | 1.09 ± 0.041 | 1.07 ± 0.028 | 1.038 ± 0.0047 | 1.05 ± 0.013 | 1.06 ± 0.017 | 1.05 ± 0.017 | 1.07 ± 0.04 | 1.084 ± 0.0066 | 1.09 ± 0.024 | 1.06 ± 0.032 | – | – | – | – | – | – | – | – | – | – | –
4 | Cc1cc(Nc2ncnc3ccc(NC4=NC(C)(C)CO4)cc23)ccc1Oc1ccn2ncnc2c1 [Tucatinib] | 1.06 ± 0.043 | 1.071 ± 0.0057 | 1.108 ± 0.0063 | 1.09 ± 0.054 | 1.1 ± 0.027 | 1.0875 ± 7.1e-05 | 1.08 ± 0.032 | 1.067 ± 0.01 | 1.05 ± 0.011 | 1.06 ± 0.026 | 0.948 ± 0.012 | – | – | – | – | – | – | – | – | – | – | –
5 | O=C(Nc1cnn2ccc(N3CCC[C@@H]3c3cc(F)ccc3F)nc12)N1CC[C@H](O)C1 [Larotrectinib] | 1.08 ± 0.042 | 1.05 ± 0.035 | 1.05 ± 0.039 | 1.05 ± 0.054 | 1.07 ± 0.038 | 1.06 ± 0.058 | 1.07 ± 0.014 | 1.09 ± 0.036 | 1.04 ± 0.028 | 1.06 ± 0.022 | 1.03 ± 0.022 | – | – | – | – | – | – | – | – | – | – | –
6 | CN1CCC(COc2cnc(-c3cccc(Cn4nc(-c5cccc(C#N)c5)ccc4=O)c3)nc2)CC1 [Tepotinib] | 1.1 ± 0.066 | 1.09 ± 0.025 | 1.12 ± 0.013 | 1.081 ± 0.0059 | 1.092 ± 0.0041 | 1.07 ± 0.016 | 1.07 ± 0.043 | 1.07 ± 0.059 | 1.04 ± 0.034 | 1.032 ± 0.0023 | 0.8618 ± 0.0058 | – | – | – | – | – | – | – | – | – | – | –
7 | C[C@@H]1CCN(C(=O)CC#N)C[C@@H]1N(C)c1ncnc2[nH]ccc12 [Tofacitinib] | 1.06 ± 0.044 | 1.1 ± 0.035 | 1.07 ± 0.025 | 1.077 ± 0.0086 | 1.1 ± 0.022 | 1.08 ± 0.018 | 1.08 ± 0.085 | 1.1 ± 0.04 | 1.07 ± 0.012 | 1.03 ± 0.027 | 1.02 ± 0.024 | – | – | – | – | – | – | – | – | – | – | –
8 | N#CC[C@H](C1CCCC1)n1cc(-c2ncnc3[nH]ccc23)cn1 [Ruxolitinib] | 1.04 ± 0.037 | 1.034 ± 0.0099 | 1.07 ± 0.012 | 1.05 ± 0.068 | 1.06 ± 0.049 | 1.03 ± 0.017 | 1.05 ± 0.027 | 1.04 ± 0.04 | 1.04 ± 0.021 | 1.04 ± 0.035 | 1.02 ± 0.087 | – | – | – | – | – | – | – | – | – | – | –
9 | C=CC(=O)N1CCC[C@@H](n2nc(-c3ccc(Oc4ccccc4)cc3)c3c(N)ncnc32)C1 [Ibrutinib] | 1.07 ± 0.019 | 1.11 ± 0.019 | 1.1 ± 0.012 | 1.05 ± 0.012 | 1.1 ± 0.022 | 1.06 ± 0.055 | 1.06 ± 0.015 | 1.07 ± 0.025 | 1.12 ± 0.027 | 1.14 ± 0.022 | 1.101 ± 0.0017 | – | – | – | – | – | – | – | – | – | – | –
10 | COc1c(OCCCN2CCOCC2)ccc2c1N=C(NC(=O)c1cnc(N)nc1)N1CCN=C21 [Copanlisib] | 1.15 ± 0.059 | 1.14 ± 0.034 | 1.12 ± 0.04 | 1.111 ± 0.0021 | 1.1 ± 0.017 | 1.12 ± 0.016 | 1.08 ± 0.034 | 0.964 ± 0.026 | 0.65405 ± 0.00049 | 0.342 ± 0.022 | 0.224 ± 0.025 | – | – | – | – | – | – | – | – | – | – | –
11 | COc1cccc2c1C(=O)c1c(O)c3c(c(O)c1C2=O)C[C@@](O)(C(=O)CO)C[C@@H]3O[C@H]1C[C@H](N)[C@H](O)[C@H](C)O1 [Doxorubicin Hydrochloride] | 1.09 ± 0.015 | 1.071 ± 0.0078 | 1.04 ± 0.025 | 1.05 ± 0.024 | 0.97 ± 0.028 | 0.707 ± 0.01 | 0.5504 ± 0.0046 | 0.117 ± 0.0055 | 0.105 ± 0.0013 | 0.183 ± 0.0044 | 0.115 ± 0.0043 | – | – | – | – | – | – | – | – | – | – | –
12 | CO[C@H]1C[C@@H]2CC[C@@H](C)[C@@](O)(O2)C(=O)C(=O)N2CCCC[C@H]2C(=O)O[C@H]([C@H](C)C[C@@H]2CC[C@@H](OP(C)(C)=O)[C@H](OC)C2)CC(=O)[C@H](C)/C=C(\C)[C@@H](O)[C@@H](OC)C(=O)[C@H](C)C[C@H](C)/C=C/C=C/C=C/1C [Ridaforolimus] | 1.1 ± 0.019 | 1.08 ± 0.02 | 1.13 ± 0.047 | 1.08 ± 0.03 | 1.03 ± 0.011 | 0.99 ± 0.028 | 0.983 ± 0.034 | 0.9952 ± 0.0077 | 0.9672 ± 0.0023 | 0.9615 ± 0.0033 | 0.934 ± 0.028 | – | – | – | – | – | – | – | – | – | – | –
13 | COc1cc2nccc(Oc3ccc(NC(=O)Nc4cc(C)on4)c(Cl)c3)c2cc1OC [Tivozanib] | 1.04 ± 0.027 | 1.06 ± 0.021 | 1.06 ± 0.032 | 1.07 ± 0.026 | 1.046 ± 0.01 | 1.06 ± 0.02 | 1.05 ± 0.019 | 1.07 ± 0.02 | 1.1 ± 0.04 | 1.12 ± 0.015 | 0.967 ± 0.021 | – | – | – | – | – | – | – | – | – | – | –
14 | C[C@@H](c1ccc2nccn2c1)n1nnc2ncc(-c3cnn(C)c3)nc21 [Volitinib] | 1.02 ± 0.043 | 1.06 ± 0.016 | 1.07 ± 0.02 | 1.06 ± 0.031 | 1.06 ± 0.029 | 1.04 ± 0.011 | 1.02 ± 0.022 | 1.05 ± 0.034 | 1.06 ± 0.012 | 0.992 ± 0.016 | 0.948 ± 0.053 | – | – | – | – | – | – | – | – | – | – | –
15 | COc1cc2c(cc1O)CCN[C@]21CS[C@@H]2c3c(OC(C)=O)c(C)c4c(c3[C@H](COC1=O)N1[C@@H]2[C@H]2c3c(cc(C)c(OC)c3O)C[C@@H]([C@@H]1O)N2C)OCO4 [Trabectedin] | – | – | – | – | – | – | – | – | – | – | – | 1.13 ± 0.038 | 1.12 ± 0.048 | 1.09 ± 0.047 | 1.094 ± 0.0095 | 1.11 ± 0.031 | 1.077 ± 0.0069 | 0.023 ± 0.0022 | 0.21 ± 0.0023 | 0.159 ± 0.005 | 1.08 ± 0.032 | 1.14 ± 0.017
16 | Cc1nc(-c2cn3c(n2)-c2ccc(-c4cnn(C(C)(C)C(N)=O)c4)cc2OCC3)n(C(C)C)n1 [Taselisib] | 1.016 ± 0.01 | 1.01 ± 0.017 | 1.02 ± 0.015 | 1.03 ± 0.056 | 1.02 ± 0.011 | 1.02 ± 0.016 | 1.034 ± 0.0069 | 1.04 ± 0.018 | 1.02 ± 0.052 | 1.01 ± 0.012 | 0.738 ± 0.0029 | – | – | – | – | – | – | – | – | – | – | –
17 | COc1cc2c(Oc3ccc4[nH]c(C)cc4c3F)ncnc2cc1OCCCN1CCCC1 [Cediranib] | 1.08 ± 0.022 | 1.08 ± 0.015 | 1.06 ± 0.011 | 1.095 ± 0.0091 | 1.1 ± 0.011 | 1.07 ± 0.031 | 1.08 ± 0.016 | 1.1 ± 0.015 | 1.1 ± 0.027 | 1.08 ± 0.035 | 1.06 ± 0.024 | – | – | – | – | – | – | – | – | – | – | –
18 | Cc1nc(NC(=O)N2CCC[C@H]2C(N)=O)sc1-c1ccnc(C(C)(C)C(F)(F)F)c1 [Alpelisib] | 1.06 ± 0.032 | 1.05 ± 0.027 | 1.05 ± 0.022 | 1.08 ± 0.031 | 1.01 ± 0.014 | 1.04 ± 0.018 | 1 ± 0.023 | 1.02 ± 0.037 | 0.994 ± 0.03 | 0.977 ± 0.034 | 0.889 ± 0.016 | – | – | – | – | – | – | – | – | – | – | –
19 | COc1cc2/c(=N/c3ccc(Br)cc3F)nc[nH]c2cc1OCC1CCN(C)CC1 [Vandetanib] | 1.02 ± 0.015 | 1.02 ± 0.026 | 1.03 ± 0.026 | 1.03 ± 0.022 | 1.03 ± 0.026 | 1.02 ± 0.034 | 1.02 ± 0.043 | 1.03 ± 0.031 | 1.02 ± 0.02 | 0.962 ± 0.04 | 0.326 ± 0.022 | – | – | – | – | – | – | – | – | – | – | –

— the supplement of paper PMC10883282
